In the Kinase Knowledgebase extract (Sharma et al. 2016):

Biological target: PIK3CD (Human) (UniProt O00329)
Experiment: Assessment of PIK3CD Kinase Activity

Chain of PIK3CD (Human) (O00329 whole entry, looked up): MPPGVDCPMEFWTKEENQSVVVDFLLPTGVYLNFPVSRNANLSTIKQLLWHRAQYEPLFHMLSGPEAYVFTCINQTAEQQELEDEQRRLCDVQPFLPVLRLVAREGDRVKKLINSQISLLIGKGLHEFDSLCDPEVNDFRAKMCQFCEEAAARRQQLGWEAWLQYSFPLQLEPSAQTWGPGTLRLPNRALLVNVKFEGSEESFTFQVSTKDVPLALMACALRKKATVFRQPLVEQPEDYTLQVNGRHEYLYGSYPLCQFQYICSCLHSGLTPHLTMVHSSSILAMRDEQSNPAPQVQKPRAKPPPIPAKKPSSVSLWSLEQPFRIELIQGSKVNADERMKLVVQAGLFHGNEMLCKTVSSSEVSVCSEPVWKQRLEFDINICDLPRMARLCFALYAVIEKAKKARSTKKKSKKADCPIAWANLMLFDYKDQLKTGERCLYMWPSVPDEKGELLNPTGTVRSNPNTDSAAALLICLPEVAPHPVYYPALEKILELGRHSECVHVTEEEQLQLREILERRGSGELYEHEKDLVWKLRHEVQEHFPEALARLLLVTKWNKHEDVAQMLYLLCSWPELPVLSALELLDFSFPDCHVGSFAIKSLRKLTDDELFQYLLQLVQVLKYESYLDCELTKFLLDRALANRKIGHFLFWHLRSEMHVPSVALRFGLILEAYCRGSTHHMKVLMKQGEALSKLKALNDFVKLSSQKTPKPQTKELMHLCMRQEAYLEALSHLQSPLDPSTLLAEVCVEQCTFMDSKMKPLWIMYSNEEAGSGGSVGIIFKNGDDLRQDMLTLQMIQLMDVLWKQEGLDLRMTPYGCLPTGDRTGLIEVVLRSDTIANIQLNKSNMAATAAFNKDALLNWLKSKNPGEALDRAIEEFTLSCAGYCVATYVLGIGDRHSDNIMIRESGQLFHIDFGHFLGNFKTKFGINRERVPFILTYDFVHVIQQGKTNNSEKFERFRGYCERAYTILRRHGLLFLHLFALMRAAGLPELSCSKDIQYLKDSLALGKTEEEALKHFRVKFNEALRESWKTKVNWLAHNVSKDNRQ

Compound	IC50 [nM]
CCc1nc2ccccc2n1-c1nc(N2CCOCC2)c2nc(C(=O)C3CCN(C(C)(C)C(=O)OC)CC3)n(C)c2n1	0.61
CCc1nc2ccccc2n1-c1nc(N2CCOCC2)c2nc(CC3CN(C(C)(C)C(N)=O)C3)n(C)c2n1	1.08

Biological target: PIK3CA (human) (UniProt P42336)
Experiment: Assessment of PIK3CA Kinase Activity

Chain of PIK3CA (human) (P42336 whole entry, looked up): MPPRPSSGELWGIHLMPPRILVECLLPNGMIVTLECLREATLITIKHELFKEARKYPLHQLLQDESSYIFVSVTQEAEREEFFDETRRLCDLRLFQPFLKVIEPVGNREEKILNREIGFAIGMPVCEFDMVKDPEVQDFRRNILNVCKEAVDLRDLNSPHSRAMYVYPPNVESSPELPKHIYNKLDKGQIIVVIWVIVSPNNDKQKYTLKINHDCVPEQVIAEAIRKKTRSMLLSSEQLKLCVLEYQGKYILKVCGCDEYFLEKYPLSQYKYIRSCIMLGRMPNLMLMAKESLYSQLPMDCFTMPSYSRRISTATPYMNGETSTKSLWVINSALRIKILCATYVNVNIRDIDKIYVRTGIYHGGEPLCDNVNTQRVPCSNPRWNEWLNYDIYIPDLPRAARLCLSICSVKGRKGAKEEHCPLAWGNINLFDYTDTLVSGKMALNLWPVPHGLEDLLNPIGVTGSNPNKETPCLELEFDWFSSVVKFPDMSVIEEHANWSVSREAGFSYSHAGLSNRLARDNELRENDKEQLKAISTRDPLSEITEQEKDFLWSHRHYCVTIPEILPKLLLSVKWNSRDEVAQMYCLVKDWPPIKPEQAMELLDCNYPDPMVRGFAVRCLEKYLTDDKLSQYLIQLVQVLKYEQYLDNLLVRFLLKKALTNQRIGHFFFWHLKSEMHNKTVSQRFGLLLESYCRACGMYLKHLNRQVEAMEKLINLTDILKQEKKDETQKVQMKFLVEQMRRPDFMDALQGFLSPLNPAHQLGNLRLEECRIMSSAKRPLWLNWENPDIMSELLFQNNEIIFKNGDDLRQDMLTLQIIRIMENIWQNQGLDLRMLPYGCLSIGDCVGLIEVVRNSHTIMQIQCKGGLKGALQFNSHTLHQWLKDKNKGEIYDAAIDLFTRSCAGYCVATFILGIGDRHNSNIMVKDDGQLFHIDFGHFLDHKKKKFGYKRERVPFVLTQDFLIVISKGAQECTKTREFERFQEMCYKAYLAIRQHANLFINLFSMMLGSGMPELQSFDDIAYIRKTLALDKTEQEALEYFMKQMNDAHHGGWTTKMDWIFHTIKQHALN

Compound	IC50 [nM]
CN(C)C1CCN(Cc2cc3nc(-c4ccc(O)c5nccn45)nc(N4CCOCC4)c3s2)CC1	593
CCc1nc2ccccc2n1-c1nc(N2CCOCC2)c2nc(CN3CCN(C(C)(C)CO)CC3)[nH]c2n1	215
Cn1c(CN2CCC(C(C)(C)O)CC2)nc2c(N3CCOCC3)nc(-c3n[nH]c4ccccc34)nc21	2790
c1cc(-c2nc(N3CCOCC3)c3sc(CN4CCC(N5CCOCC5)CC4)cc3n2)c2ccncc2c1	5350
Cn1c(CN2CC(C3CCOCC3)C2)nc2c(N3CCOCC3)nc(-n3c(C4CC4)nc4ccccc43)nc21	472
CCc1nc2ccccc2n1-c1nc(N2CCOCC2)c2nc(CC(=O)N3CCC(C(C)(C)O)CC3)sc2n1	132
CCc1nc2ccccc2n1-c1nc(N2CCOCC2)c2nc(CCN3CCOCC3(C)C)n(C)c2n1	485
Cn1c(CN2CCC(C(C)(C)O)CC2)nc2c(N3CCOCC3)nc(-c3cnc(N)c4ccccc34)nc21	245
COC(C)(C)C1CCN(Cc2nc3c(N4CCOCC4)nc(-c4c(C)oc5ccccc45)nc3n2C)CC1	1200
CCc1nc2ccccc2n1-c1nc(N2CCOCC2)c2nc(CN3C[C@@H]4C[C@H]3CN4C(C)(C)CO)n(C)c2n1	218
CCc1nc2ccccc2n1-c1nc(N2CCOCC2)c2nc(C(=O)C3CCN(C(C)(C)C(=O)OC)CC3)n(C)c2n1	83
CC(C)c1nc2ccccc2n1-c1nc(N2CCOCC2)c2nc(-c3cccnc3)n(C)c2n1	190
COc1cccc(-c2nc3c(N4CCOCC4)nc(-n4c(C(C)C)nc5ccccc54)nc3n2C)c1	729
CCc1nc2ccccc2n1-c1nc(N2CCOCC2)c2nc(CC3CN(C(C)(C)C(N)=O)C3)n(C)c2n1	104
CC(C)(C(N)=O)N1CCN(Cc2nc3nc(-c4cccc5nccn45)nc(N4CCOCC4)c3s2)CC1	1500
CCc1nc2ccccc2n1-c1nc(N2CCOCC2)c2nc(CC3CN(C4CCS(=O)(=O)CC4)C3)n(C)c2n1	82.5
Cc1nc2ccccc2n1-c1nc(N2CCOCC2)c2oc(CN3CCN(C(C)(C)C(N)=O)CC3)cc2n1	175
CC(C)(C(N)=O)N1CCN(Cc2nc3c(N4CCOCC4)nc(-c4cncc5[nH]ccc45)nc3s2)CC1	41.6
Cc1c(CN2CCN(C(C)(C)C(N)=O)CC2)sc2c(N3CCOCC3)nc(-c3cncc4[nH]ccc34)nc12	52.2
CN(C)C1CCN(Cc2cc3nc(-n4ccc5cnccc54)nc(N4CCOCC4)c3s2)CC1	207
CC(C)c1nc2ccccc2n1-c1nc(N2CCOCC2)c2nc(CN3CCN(C(C)(C)CO)CC3)[nH]c2n1	264
